This experiment deals with P388 leukemia ip, CD2F1 mice, survival T/C. Kind of experiment: NCI In Vivo Anticancer Drug Screen. Data for tumor model P388 Leukemia (intraperitoneal) in CD2F1 (CDF1) mice. Particulars: endpoint: median survival time, higher = longer survival. The method in brief:
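Mice carrying the transplanted tumor received test compound or vehicle. Survival was recorded in each group, and the value is the treated-group measurement divided by that of the vehicle-treated control group.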

The mark [1] stands for this setting: dose: 25.0 mg/kg/injection, schedule: Q01DX009 (ip), vehicle: saline with Tween-80.
The mark [2] stands for this setting: dose: 50.0 mg/kg/injection, schedule: Q01DX009 (ip), vehicle: saline with Tween-80.
Setting [3] is: dose: 100.0 mg/kg/injection, schedule: Q01DX009 (ip), vehicle: saline with Tween-80.
[4] abbreviates: dose: 200.0 mg/kg/injection, schedule: Q01DX009 (ip), vehicle: saline with Tween-80.
[5] abbreviates: dose: 50.0 mg/kg/injection, schedule: Q01DX005 (ip), vehicle: saline with Tween-80.
Setting [6] is: dose: 50.0 mg/kg/injection, schedule: Q01DX005 (ip), vehicle: saline.
Where [7] appears, read: dose: 200.0 mg/kg/injection, schedule: Q01DX005 (ip), vehicle: saline with Tween-80.
Where [8] appears, read: dose: 60.0 mg/kg/injection, schedule: Q01DX005 (ip), vehicle: saline with Tween-80.
[9] abbreviates: dose: 120.0 mg/kg/injection, schedule: Q01DX005 (ip), vehicle: saline with Tween-80.
[10] abbreviates: dose: 240.0 mg/kg/injection, schedule: Q01DX005 (ip), vehicle: saline with Tween-80.
Setting [11] is: dose: 100.0 mg/kg/injection, schedule: Q04DX003 (ip), vehicle: saline with Tween-80.
Where [12] appears, read: dose: 200.0 mg/kg/injection, schedule: Q04DX003 (ip), vehicle: saline with Tween-80.
Where [13] appears, read: dose: 400.0 mg/kg/injection, schedule: Q04DX003 (ip), vehicle: saline with Tween-80.
Setting [14] is: dose: 400.0 mg/kg/injection, schedule: Q01DX009 (ip), vehicle: saline with Tween-80.
[15] abbreviates: dose: 100.0 mg/kg/injection, schedule: Q01DX009 (ip), vehicle: Klucel (hydroxypropylcellulose) (HPC).
Setting [16] is: dose: 100.0 mg/kg/injection, schedule: Q04DX003 (ip), vehicle: Klucel (hydroxypropylcellulose) (HPC).
Setting [17] is: dose: 200.0 mg/kg/injection, schedule: Q04DX003 (ip), vehicle: Klucel (hydroxypropylcellulose) (HPC).
The mark [18] stands for this setting: dose: 50.0 mg/kg/injection, schedule: Q01DX005 (ip), vehicle: Klucel (hydroxypropylcellulose) (HPC).
Setting [19] is: dose: 100.0 mg/kg/injection, schedule: Q01DX005 (ip), vehicle: Klucel (hydroxypropylcellulose) (HPC).
Setting [20] is: dose: 100.0 mg/kg/injection, schedule: Q01DX005 (ip), vehicle: saline with Tween-80.

Molecules are shown by their SMILES. Values joined by “and” are separate entries in the source; they are usually repeats but may differ in a detail not shown here. Equal entries are not always repeated. Inconclusive results and toxic doses are left out.

With `c1ccc([Si]2(c3ccccc3)O[Si](c3ccccc3)(c3ccccc3)O[Si](c3ccccc3)(c3ccccc3)O[Si](c3ccccc3)(c3ccccc3)O2)cc1`, the T/C under setting [1] is 95 % of control and 97 % of control; the T/C under setting [2] is 100 % of control and 92 % of control and 93 % of control; the T/C under setting [3] is 120 % of control and 94 % of control and 95 % of control; the T/C under setting [4] is 90 % of control (2×) and 93 % of control.

With `CCCCCC(=N\N=C(N)N)/C(C)=N/N=C(N)N`, the T/C (dose: 12.5 mg/kg/injection, schedule: Q01DX005 (ip), vehicle: saline with Tween-80) was 98 % of control; the T/C (dose: 25.0 mg/kg/injection, schedule: Q01DX005 (ip), vehicle: saline with Tween-80) is 97 % of control; the T/C under setting [5] was 101 % of control; the T/C under setting [6] was 100 % of control.

As for `CCCCCCCCCNCC(O)c1cc2c(c3ccccc13)CCCC2` (centres undefined), the T/C reads like this: (dose: 6.25 mg/kg/injection, schedule: Q01DX005 (ip), vehicle: Klucel (hydroxypropylcellulose) (HPC)) 92 % of control; (dose: 12.5 mg/kg/injection, schedule: Q01DX005 (ip), vehicle: Klucel (hydroxypropylcellulose) (HPC)) 90 % of control; (dose: 25.0 mg/kg/injection, schedule: Q01DX005 (ip), vehicle: Klucel (hydroxypropylcellulose) (HPC)) 99 % of control.

With `O=C(Nc1ccc2c(c1)Cc1ccccc1-2)c1cccc2ccccc12`, the T/C by setting is: (dose: 0.75 mg/kg/injection, schedule: Q01DX005 (ip), vehicle: saline with Tween-80) 96 % of control; (dose: 1.5 mg/kg/injection, schedule: Q01DX005 (ip), vehicle: saline with Tween-80) 96 % of control; (dose: 3.0 mg/kg/injection, schedule: Q01DX005 (ip), vehicle: saline with Tween-80) 89 % of control; under setting [7], 90 % of control.

As for `C/C=C(/CN/C(=C\[N+](=O)[O-])c1ccccc1)c1ccccc1`, the T/C by setting is: under setting [8], 102 % of control; under setting [9], 100 % of control; under setting [10], 95 % of control.

For the molecule `Cc1c(-c2ccccc2)nnn1-c1ccc(F)cc1F`, the T/C under setting [8] was 101 % of control, the T/C under setting [9] was 99 % of control and the T/C under setting [10] was 92 % of control.

With `O=S(=O)(Nc1ccc(O)c(Cl)c1)c1ccccc1`, the T/C was 100 % of control under setting [11], 100 % of control under setting [12] and 100 % of control under setting [13].

On to `O=C(O)c1ccc2c(c1)C(=O)c1c(O)ccc(O)c1C2=O`, for which the T/C was 92 % of control under setting [2], 103 % of control under setting [3] and 103 % of control under setting [4].

Consider `OCCC1CC2CCCCN2O1` (centres undefined), for which the T/C is 101 % of control (dose: 50.0 mg/kg/injection, schedule: Q04DX003 (ip), vehicle: saline); 103 % of control (dose: 100.0 mg/kg/injection, schedule: Q04DX003 (ip), vehicle: saline); 102 % of control (dose: 200.0 mg/kg/injection, schedule: Q04DX003 (ip), vehicle: saline).

Turning to `CCCCCCC(/C=C/c1c(Cl)cccc1Cl)=N\O`, the T/C under setting [1] was 98 % of control; the T/C under setting [2] was 100 % of control; the T/C under setting [3] is 99 % of control and 109 % of control; the T/C under setting [4] was 101 % of control; the T/C under setting [14] was 118 % of control.

Regarding `CC(=O)OC1(CSc2ccccc2)CCCCC1`, the T/C is 89 % of control under setting [1]; 101 % of control and 102 % of control under setting [2]; 104 % of control and 109 % of control under setting [3]; 108 % of control and 111 % of control under setting [4]; 111 % of control under setting [14].

Consider `O=C1NC(CN2CCCC(O)C2)C(=O)NC1CN1CCCC(O)C1` (centres undefined), for which the T/C was 110 % of control and 95 % of control (dose: 12.5 mg/kg/injection, schedule: Q01DX009 (ip), vehicle: water); 96 % of control and 90 % of control (dose: 25.0 mg/kg/injection, schedule: Q01DX009 (ip), vehicle: water); 96 % of control and 110 % of control (dose: 50.0 mg/kg/injection, schedule: Q01DX009 (ip), vehicle: water); 122 % of control and 114 % of control (dose: 100.0 mg/kg/injection, schedule: Q01DX009 (ip), vehicle: water); 116 % of control (dose: 200.0 mg/kg/injection, schedule: Q01DX009 (ip), vehicle: water).

With `c1cc[c]([Sn]([NH]c2ncnc3[nH]cnc23)([NH]c2ncnc3[nH]cnc23)[c]2ccccc2)cc1`, the T/C runs as follows: (dose: 12.5 mg/kg/injection, schedule: Q01DX009 (ip), vehicle: saline) 123 % of control; under setting [15], 196 % of control.

In the case of `CCCCCCCCCCCC(=O)OC/C=C/COC(=O)c1ccccc1`, the T/C (dose: 50.0 mg/kg/injection, schedule: Q01DX009 (ip), vehicle: Klucel (hydroxypropylcellulose) (HPC)) was 100 % of control; the T/C under setting [15] was 108 % of control; the T/C (dose: 200.0 mg/kg/injection, schedule: Q01DX009 (ip), vehicle: Klucel (hydroxypropylcellulose) (HPC)) was 96 % of control.

As to `CSc1nccc(=O)n1-c1ccccc1`, the T/C is 91 % of control under setting [16] and 92 % of control under setting [17].

For `CCCCn1c2nc(=O)[nH]c(=O)c-2[n+]([O-])c2ccccc21`, the T/C (dose: 25.0 mg/kg/injection, schedule: Q01DX001 (ip), vehicle: saline with Tween-80) is 102 % of control and the T/C (dose: 50.0 mg/kg/injection, schedule: Q01DX001 (ip), vehicle: saline with Tween-80) is 102 % of control.

In the case of `CCC(C)(C)NCCCCCNc1cc(OC)cc2cccnc12`, the T/C reads like this: under setting [18], 94 % of control; under setting [5], 95 % of control; under setting [19], 101 % of control; under setting [20], 95 % of control; under setting [7], 91 % of control.

Consider `CCOC1OCN(C(C)(C)C)CC1(C)C` (centres undefined), for which the T/C was 104 % of control under setting [1] and 120 % of control under setting [2].

On to `COc1ccc(/C=C/C(=O)c2c(N)n(C)c(=O)n(C)c2=O)cc1`, for which the T/C is, setting by setting: under setting [18], 91 % of control; under setting [19], 88 % of control.

With `COc1cc(/C=C/C=C/c2ccccc2)oc(=O)c1`, the T/C runs as follows: under setting [16], 91 % of control; under setting [17], 90 % of control; (dose: 400.0 mg/kg/injection, schedule: Q04DX003 (ip), vehicle: Klucel (hydroxypropylcellulose) (HPC)) 92 % of control.

For `CC1=NC(C)(Cc2ccccc2)SC1c1ccccc1` (centres undefined), the T/C under setting [5] was 110 % of control; the T/C under setting [6] is 100 % of control; the T/C under setting [20] was 96 % of control; the T/C (dose: 100.0 mg/kg/injection, schedule: Q01DX005 (ip), vehicle: saline) is 106 % of control; the T/C (dose: 200.0 mg/kg/injection, schedule: Q01DX005 (ip), vehicle: saline) is 101 % of control.

Take `NC(=O)NC(=O)C(Cc1ccccc1)c1ccccc1` (centres undefined): the T/C is 99 % of control under setting [8], 95 % of control under setting [9] and 86 % of control under setting [10].

As for `CC(=O)C1(C(C)=O)C2=C(C(=O)C(Cl)=C(Cl)C2=O)N2C=CC=CC21` (centres undefined), the T/C (dose: 100.0 mg/kg/injection, schedule: Q04DX002 (ip), vehicle: saline) was 102 % of control and the T/C (dose: 200.0 mg/kg/injection, schedule: Q04DX002 (ip), vehicle: saline) is 88 % of control.

Take `NC(=S)N/N=C\C(=N/NC(N)=S)c1cccc([N+](=O)[O-])c1`: the T/C was 92 % of control (dose: 12.5 mg/kg/injection, schedule: Q01DX009 (ip), vehicle: saline with Tween-80); 92 % of control under setting [1]; 93 % of control and 96 % of control under setting [2]; 96 % of control under setting [3]; 96 % of control under setting [4].

`CN1CCC2CC1c1ccn(C)c1C2=O` (centres undefined): the T/C (dose: 7.5 mg/kg/injection, schedule: Q01DX005 (ip), vehicle: saline) is 93 % of control; the T/C (dose: 15.0 mg/kg/injection, schedule: Q01DX005 (ip), vehicle: saline) is 96 % of control; the T/C (dose: 30.0 mg/kg/injection, schedule: Q01DX005 (ip), vehicle: saline) is 106 % of control.

With `C=CCNS(=O)(=O)c1ccccc1`, the T/C is 102 % of control (dose: 25.0 mg/kg/injection, schedule: Q04DX003 (ip), vehicle: saline with Tween-80); 107 % of control (dose: 50.0 mg/kg/injection, schedule: Q04DX003 (ip), vehicle: saline with Tween-80); 94 % of control under setting [11]; 107 % of control under setting [12]; 107 % of control under setting [13].

Values taken from PubChem BioAssay AID330 (DTP/NCI, 2004).
